Test system: Rhipicephalus microplus
Assay: Tick repellency of compounds produced on tick-resistant versus tick-susceptible cattle breeds
Details: compound produced on host; ticks on cattle (Nelore vs Holstein)
Source text: The tick Rhipicephalus microplus specializes on cattle and other large bovids. However, success of its blood-feeding depends on the breed of the bovine host. In an indicine and a taurine breed of cattle that present contrasting phenotypes of infestation, Nelore and Holstein, respectively, resistant and susceptible to tick infestations as ascertained by the number of ticks and the reproductive success of female ticks completing their life-cycles on these two types of host.
At the same time, different levels of host immunity may affect the composition of tick saliva, contributing to these outcomes.

CC(=O)CCC=C(C)C [6-methyl-5-hepten-2-one]
repellency (result in words): repellent
